Results published in EP0942911B1, “BENZOPYRANOPYRROLE AND BENZOPYRANOPYRIDINE ALPHA-1 ADRENERGIC COMPOUNDS” (Abbott Laboratories, priority 1996, dated 1998).
Structures can show the parent of a compound that is named as a salt. Where two headings read alike, the source gives them in different places.

Columns and labels:
α-1d adrenoreceptor = target: T1, α-1d adrenoreceptor (Rattus norvegicus, UniProt P23944); assay: biochemical; format: binding
T1 sequence (P23944 1-561): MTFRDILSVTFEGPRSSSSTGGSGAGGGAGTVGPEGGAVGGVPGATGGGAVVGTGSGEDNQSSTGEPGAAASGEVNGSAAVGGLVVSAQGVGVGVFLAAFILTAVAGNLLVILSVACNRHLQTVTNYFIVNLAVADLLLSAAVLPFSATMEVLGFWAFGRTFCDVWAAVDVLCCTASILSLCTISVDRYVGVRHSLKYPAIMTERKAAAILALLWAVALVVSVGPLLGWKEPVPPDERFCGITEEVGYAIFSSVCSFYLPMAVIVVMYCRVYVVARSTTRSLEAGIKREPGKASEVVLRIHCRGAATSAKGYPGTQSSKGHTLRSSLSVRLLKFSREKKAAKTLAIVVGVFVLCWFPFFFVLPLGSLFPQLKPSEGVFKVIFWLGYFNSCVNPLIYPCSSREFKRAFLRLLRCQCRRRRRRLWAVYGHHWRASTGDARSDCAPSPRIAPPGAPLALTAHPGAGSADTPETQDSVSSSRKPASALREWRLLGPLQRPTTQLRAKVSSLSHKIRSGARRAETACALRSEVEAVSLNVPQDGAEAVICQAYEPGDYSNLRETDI
How it was run: (§1)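 Cloned α-1a (bovine), α-1b (hamster) and α-1d (rat) adrenoreceptors were stably expressed in mouse LTK fibroblasts; membranes from roller-bottle cultures were used. Native α-1A sites came from rat submaxillary gland. Radioligand binding followed Greengrass and Bremner, with liquid scintillation read-out.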

α-1a adrenoreceptor = target: T2, α-1a adrenoreceptor (Bos taurus, UniProt P18130); assay: biochemical; format: binding, bovine
T2 sequence (P18130 1-466): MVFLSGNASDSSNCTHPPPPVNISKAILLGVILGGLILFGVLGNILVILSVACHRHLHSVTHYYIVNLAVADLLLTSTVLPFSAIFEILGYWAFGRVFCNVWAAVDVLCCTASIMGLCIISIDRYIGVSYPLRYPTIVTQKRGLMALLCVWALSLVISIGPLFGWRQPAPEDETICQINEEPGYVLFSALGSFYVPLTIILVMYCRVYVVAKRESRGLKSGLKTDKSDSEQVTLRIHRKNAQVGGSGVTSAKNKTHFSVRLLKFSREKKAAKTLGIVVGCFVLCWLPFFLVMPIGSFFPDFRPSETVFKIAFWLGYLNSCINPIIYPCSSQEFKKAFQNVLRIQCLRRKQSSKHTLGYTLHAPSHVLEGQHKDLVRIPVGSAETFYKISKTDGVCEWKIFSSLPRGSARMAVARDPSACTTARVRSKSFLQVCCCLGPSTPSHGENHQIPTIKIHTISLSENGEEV
How it was run: as §1

[1] = [3H]-prazosin radioligand, cloned receptor in LTK cell membranes, read-out: Radioligand Binding (Ki, nM) 1d (Rat)
[2] = [3H]-prazosin radioligand, cloned receptor in LTK cell membranes, read-out: Radioligand Binding (Ki, nM) 1a (Bovine)
[3] = read-out: Radioligand Binding (Ki, nM) 1d (Rat)
[4] = read-out: Radioligand Binding (Ki, nM) 1a (Bovine)

## COc1cccc2c1[C@@H]1CCN(CCCCn3c(=O)[nH]c4c(sc5cccnc54)c3=O)C[C@H]1CO2 [Example 95, 3-[4-((4aS,10bR)-trans-10-Methoxy-1,3,4,4a,5,10b-hexahydro-2H-[1]-benzopyrano[3,4-c]pyrido-3-yl)butyl]-pyrido[2',3':4,5]thieno[3,2-d]pyrimidine-2.4(1H,3H)-dione dihydrochloride]
α-1d adrenoreceptor; [1]
  Ki: 23 nM
α-1a adrenoreceptor; [2]
  Ki: 1.8 nM

## O=c1[nH]c2c(sc3cccnc32)c(=O)n1CCCCN1C[C@@H]2COc3ccccc3[C@@H]2C1 (racemic) [Example 70, 3-[4-((±)-cis-1,2,3,3a,4,9b-hexahydro-[1]-benzopyrano[3,4-c]pyrrol-2-yl)butyl]-pyrido[2',3':4,5]thieno[3,2-d]pyrimidine-2,4(1H,3H)-dione dihydrochloride]
α-1d adrenoreceptor; [3]
  Ki: 0.482 nM
α-1a adrenoreceptor; [4]
  Ki: 0.082 nM

## COc1cccc2c1[C@H]1CN(CCCCn3c(=O)[nH]c4c(sc5cccnc54)c3=O)C[C@H]1CO2 [Example 2, 3-[4-((3aS,9bS)-cis-9-Methoxy-1,2,3,3a,4,9b-hexahydro-[1]-benzopyrano[3,4-c]pyrrol-2-yl)butyl]-pyrido[2',3':4,5]thieno[3,2-d]pyrimidine-2,4(1H,3H)-dione hydrochloride]
α-1d adrenoreceptor; [1]
  Ki: 2.72 nM
α-1a adrenoreceptor; [2]
  Ki: 0.193 nM

## COc1cccc2c1[C@@H]1CN(CCn3c(=O)[nH]c4c(sc5ccccc54)c3=O)C[C@@H]1CO2.Cl (racemic) [Example 65, 3-[2-((±)-cis-9-Methoxy-1,2,3,3a,4,9b-hexahydro-[1]-benzopyrano[3,4-c]pyrrol-2-yl)ethyl]-[1]benzthieno[3,2-d]pyrimidine-2,4(1H,3H)-dione hydrochloride]
α-1d adrenoreceptor; [3]
  Ki: 25 nM
α-1a adrenoreceptor; [4]
  Ki: 1.82 nM

## COc1cccc2c1[C@@H]1CN(CCCCn3c(=O)[nH]c4c(sc5ncc(-c6ccccc6)nc54)c3=O)C[C@H]1CO2 [Example 50, 3-[4-((3aS,9bR)-trans-9-Methoxy-1,2,3,3a,4,9b-hexahydro-[1]-benzopyrano[3,4-c]pyrrol-2-yl)butyl]-8-phenyl-pyrazino[2',3':4,5]thieno[3,2-d]pyrimidine-2,4(1H,3H)-dione hydrochloride]
α-1d adrenoreceptor; [1]
  Ki: 0.391 nM
α-1a adrenoreceptor; [2]
  Ki: 0.335 nM

## COc1cccc2c1[C@@H]1CN(CCCCn3c(=O)[nH]c4c(sc5nc(-c6ccccc6)cnc54)c3=O)C[C@@H]1CO2 [Example 40, 3-[4-((3aR,9bR)-cis-9-Methoxy-1,2,3,3a,4,9b-hexahydro-[1]-benzopyrano[3,4-c]pyrrol-2-yl)butyl]-7-phenyl-pyrazino[2',3':4,5]thieno[3,2-d]pyrimidine-2,4(1H,3H)-dione hydrochloride]
α-1d adrenoreceptor; [1]
  Ki: 7.12 nM
α-1a adrenoreceptor; [2]
  Ki: 3.02 nM

## COc1cccc2c1[C@@H]1CN(CCCCn3c(=O)[nH]c4c(sc5cccnc54)c3=O)C[C@H]1CO2 [Example 3, 3-[4-((3aS,9bR)-trans-9-Methoxy-1,2,3,3a,4,9b-hexahydro-[1]-benzopyrano[3,4-c]pyrrol-2-yl)butyl]-pyrido[2',3':4,5]thieno[3,2-d]pyrimidine-2,4(1H,3H)-dione hydrochloride]
α-1d adrenoreceptor; [1]
  Ki: 0.041 nM
α-1a adrenoreceptor; [2]
  Ki: 0.02 nM

## COc1cccc2c1[C@@H]1CN(CCCCn3c(=O)[nH]c4c(sc5ccnc(OC)c54)c3=O)C[C@H]1CO2 [Example 49, 3-[4-((3aS,9bR)-trans-9-Methoxy-1,2,3,3a,4,9b-hexahydro-[1]-benzopyrano[3,4-c]pyrrol-2-yl)butyl]-9-methoxy-pyrido[3',4':4,5]thieno[3,2-d]pyrimidine-2,4(1H,3H)-dione fumarate]
α-1d adrenoreceptor; [1]
  Ki: 0.019 nM
α-1a adrenoreceptor; [2]
  Ki: 0.007 nM

## COc1cccc2c1[C@@H]1CN(CCCCn3c(=O)[nH]c4c(sc5cnccc54)c3=O)C[C@@H]1CO2 [Example 29, 3-[4-((3aR,9bR)-cis-9-Methoxy-1,2,3,3a,4,9b-hexahydro-[1]-benzopyrano[3,4-c]pyrrol-2-yl)butyl]-pyrido[4',3':4,5]thieno[3,2-d]pyrimidine-2,4(1H,3H)-dione dihydrochloride]
α-1d adrenoreceptor; [1]
  Ki: 0.466 nM
α-1a adrenoreceptor; [2]
  Ki: 0.095 nM

## COc1cc2nc(N3CCN(C(=O)C4COc5ccccc5O4)CC3)nc(N)c2cc1OC (centres unmarked) [Doxazosin, doxazosin, reference compound]
α-1d adrenoreceptor
  Ki: 0.231 nM
α-1a adrenoreceptor
  Ki: 0.912 nM

## COc1cccc2c1[C@@H]1CN(CCCCn3c(=O)[nH]c4c(sc5ccncc54)c3=O)C[C@H]1CO2 [Example 41, 3-[4-((3aS,9bR)-trans-9-Methoxy-1,2,3,3a,4,9b-hexahydro-[1]-benzopyrano[3,4-c]pyrrol-2-yl)butyl]-pyrido[3',4':4,5]thieno[3,2-d]pyrimidine-2,4(1H,3H)-dione dihydrochloride]
α-1d adrenoreceptor; [1]
  Ki: 0.041 nM
α-1a adrenoreceptor; [2]
  Ki: 0.031 nM

## COc1cccc2c1[C@@H]1CN(CCCCn3c(=O)[nH]c4c(sc5ncccc54)c3=O)C[C@H]1CO2 [Example 44, 3-[4-((3aS,9bR)-trans-9-Methoxy-1,2,3,3a,4,9b-hexahydro-[1]-benzopyrano[3,4-c]pyrrol-2-yl)butyl]-pyrido[3',2':4,5]thieno[3,2-d]pyrimidine-2,4(1H,3H)-dione hydrochloride]
α-1d adrenoreceptor; [1]
  Ki: 0.081 nM
α-1a adrenoreceptor; [2]
  Ki: 0.043 nM

## COc1cccc2c1[C@@H]1CN(CCCCn3c(=O)[nH]c4c(sc5cccnc54)c3=O)C[C@@H]1CO2 [Example 1, 3-[4-((3aR,9bR)-cis-9-Methoxy-1,2,3,3a,4,9b-hexahydro-[1]-benzopyrano[3,4-c]pyrrol-2-yl)butyl]-pyrido[2',3':4,5]thieno[3,2-d]pyrimidine-2,4(1H,3H)-dione hydrochloride]
α-1d adrenoreceptor; [1]
  Ki: 0.223 nM
α-1a adrenoreceptor; [2]
  Ki: 0.024 nM

## COc1cccc2c1[C@@H]1CN(CCCCn3c(=O)[nH]c4c(sc5ncc(Cl)nc54)c3=O)C[C@H]1CO2 [Example 13, 3-[4-((3aS,9bR)-trans-9-Methoxy-1,2,3,3a,4,9b-hexahydro-[1]-benzopyrano[3,4-c]pyrrol-2-yl)butyl]-8-chloro-pyrazino[2',3':4,5]thieno[3,2-d]pyrimidine-2,4(1H,3H)-dione hydrochloride]
α-1d adrenoreceptor; [1]
  Ki: 0.112 nM
α-1a adrenoreceptor; [2]
  Ki: 0.041 nM

## COc1ccc2c(n1)sc1c(=O)n(CCCCN3C[C@H]4COc5cccc(OC)c5[C@@H]4C3)c(=O)[nH]c12 [Example 46, 3-[4-((3aS,9bR)-trans-9-Methoxy-1,2,3,3a,4,9b-hexahydro-[1]-benzopyrano[3,4-c]pyrrol-2-yl)butyl]-7-methoxy-pyrido[3',2':4,5]thieno[3,2-d]pyrimidine-2,4(1H,3H)-dione hydrochloride]
α-1d adrenoreceptor; [1]
  Ki: 0.114 nM
α-1a adrenoreceptor; [2]
  Ki: 0.033 nM

## COc1cccc2c1[C@@H]1CN(CCCCn3c(=O)[nH]c4c(sc5ncccc54)c3=O)C[C@@H]1CO2 [Example 34, 3-[4-((3aR,9bR)-cis-9-Methoxy-1,2,3,3a,4,9b-hexahydro-[1]-benzopyrano[3,4-c]pyrrol-2-yl)butyl]-pyrido[3',2':4,5]thieno[3,2-d]pyrimidine-2,4(1H,3H)-dione hydrochloride]
α-1d adrenoreceptor; [1]
  Ki: 0.339 nM
α-1a adrenoreceptor; [2]
  Ki: 0.079 nM

## COc1cccc2c1[C@@H]1CN(CCCCn3c(=O)[nH]c4c(sc5cc(Cl)cnc54)c3=O)C[C@@H]1CO2 [Example 38, 3-[4-((3aR,9bR)-cis-9-Methoxy-1,2,3,3a,4,9b-hexahydro-[1]-benzopyrano[3,4-c]pyrrol-2-yl)butyl]-7-chloro-pyrido[2',3':4,5]thieno[3,2-d]pyrimidine-2,4(1H,3H)-dione hydrochloride]
α-1d adrenoreceptor; [1]
  Ki: 0.897 nM
α-1a adrenoreceptor; [2]
  Ki: 0.057 nM

## COc1cccc2c1[C@@H]1CN(CCCCn3c(=O)[nH]c4c(sc5c(Cl)nccc54)c3=O)C[C@H]1CO2 [Example 54, 3-[4-((3aS,9bR)-trans-9-Methoxy-1,2,3,3a,4,9b-hexahydro-[1]-benzopyrano[3,4-c]pyrrol-2-yl)butyl]-6-chloro-pyrido[4',3':4,5]thieno[3,2-d]pyrimidine-2,4(1H,3H)-dione]
α-1d adrenoreceptor; [1]
  Ki: 0.173 nM
α-1a adrenoreceptor; [2]
  Ki: 0.187 nM

## COc1cccc2c1[C@@H]1CN(CCCCn3c(=O)[nH]c4c(sc5cnccc54)c3=O)C[C@H]1CO2 [Example 42, 3-[4-((3aS,9bR)-trans-9-Methoxy-1,2,3,3a,4,9b-hexahydro-[1]-benzopyrano[3,4-c]pyrrol-2-yl)butyl]-pyrido[4',3':4,5]thieno[3,2-d]pyrimidine-2,4(1H,3H)-dione dihydrochloride]
α-1d adrenoreceptor; [1]
  Ki: 0.066 nM
α-1a adrenoreceptor; [2]
  Ki: 0.028 nM
